# Details: not given
Compound,melting point [°C],log10 Henry constant (atm·m³/mol),log10 vapour pressure (mmHg),boiling point [°C],ready biodegradability,log10 Koa,log10 Koc (L/kg),log10 biodegradation half-life (days),logP
NCCC(=O)N[C@@H](Cc1c[nH]cn1)C(=O)O,260,–,–,–,–,–,–,–,–
O=C(Nc1ccc(F)cc1F)c1cccnc1Oc1cccc(C(F)(F)F)c1,160,-6.49,-7.5,–,–,–,–,–,–
C=CC,-185,-0.708,3.94,-48,–,–,–,–,–
CCOP(=O)(Sc1ccccc1)Sc1ccccc1,–,–,-6.57,–,–,–,–,–,–
ClCc1cc(Cl)c(Cl)cc1Cl,–,–,–,273,–,–,–,–,–
Oc1ccccc1Cc1ccccc1O,–,–,–,–,not readily biodegradable,–,–,–,–
CC(F)(F)Cl,-131,-1.23,3.41,-9.7,–,–,–,–,–
CCCCOC(=O)C(C)O (stereo not drawn),-28,–,-0.398,186,–,–,–,–,–
COCC(C)OC (stereo not drawn),–,–,–,96,–,–,–,–,–
Cc1c(C)c(C)c(C)c(C)c1C,166,–,-3.07,263,–,6.31,–,–,–
CCCCCCCCCCCc1ccccc1,-5,–,-3.62,316,–,–,–,–,–
CC(O)CNCC(C)O (stereo not drawn),44.5,–,-3.9,250,readily biodegradable,–,–,–,–
CCOC(=O)C(CC)C(=O)OCC,–,–,–,208,–,–,–,–,–
O=S(=O)(O)c1ccccc1,65,–,–,–,readily biodegradable,–,–,–,–
CCCCOC(=O)C1=CC(=O)CC(C)(C)O1,–,–,-3.52,263,–,–,–,–,–
Cc1ccc(N(C)C)cc1,–,–,-0.75,211,–,–,–,–,–
BrC1CCCCC1,-56.5,–,–,166,–,–,–,–,–
Oc1ccccc1Br,5.6,–,–,194,not readily biodegradable,–,–,–,–
CN(C=O)c1ccccc1,14.5,–,–,243,–,–,–,–,–
CCCCCCCCCCCCCCCC(=O)CC,51,–,–,–,–,–,–,–,–
OCC(Br)CBr (stereo not drawn),–,–,-1.04,–,–,–,–,–,–
C1SSCSSS1,60.5,–,–,–,–,–,–,–,–
Cc1cc(-n2nc3ccc(Cl)cc3n2)c(O)c(C(C)(C)C)c1,–,–,–,–,not readily biodegradable,–,–,–,–
O=C(O)CCc1ccco1,58,–,–,229,–,–,–,–,–

Compound,melting point [°C],log10 Henry constant (atm·m³/mol),log10 vapour pressure (mmHg),boiling point [°C],ready biodegradability,log10 Koa,log10 Koc (L/kg),log10 biodegradation half-life (days),logP
CC(=O)Nc1ccccc1F,78,–,–,–,–,–,–,–,–
CCCN(CCC)C(=O)SCC,–,–,-1.62,–,–,–,2.38,–,–
CCCCNC(=O)NS(=O)(=O)c1ccc(N)cc1,144,–,–,–,–,–,–,–,–
CCCCOC(=O)CC(O)(CC(=O)OCCCC)C(=O)OCCCC,-20,–,–,–,–,–,–,–,–
C=C(C)C(=O)OCC,–,–,1.31,117,–,–,–,–,–
CCC(C)CCC(C)C (stereo not drawn),–,–,–,136,–,–,–,0.778,–
CC(C)(C)CC1(C)CO1 (stereo not drawn),-64,–,–,141,–,–,–,–,–
C=CCC1(c2ccccc2)C(=O)NC(=O)NC1=O,156,–,–,–,–,–,–,–,–
Cc1cc(Cl)c2ccccc2n1,42.5,–,–,270,–,–,–,–,–
NCCCCCCCCCCN,62.5,–,–,–,–,–,–,–,–
CC[C@H]1CC[C@H](C)NC1,–,–,0.458,–,–,–,–,–,–
CC(=O)CC(c1ccccc1)c1c(O)c2ccccc2oc1=O (stereo not drawn),–,–,-6.94,–,–,–,2.96,–,–
CN(C)N=Nc1nc[nH]c1C(N)=O,205,–,–,–,–,–,–,–,–
CCCCCCCCCCCC[N+](CCO)(CCO)Cc1ccccc1.[Cl-],108,–,–,–,–,–,–,–,–
O=C1CCCCN1,39.5,–,-2.36,256,–,–,–,–,–
CCCCCCCCCCOC(=O)CCCCC(=O)OCCCCCCCC,-50,–,–,–,–,–,–,–,–
CCCCCCCCCCCCc1ccc(N)cc1,40.5,–,–,–,readily biodegradable,–,–,–,–
CS(C)=O,18.5,-8.82,-0.215,189,not readily biodegradable,4.96,–,–,–
O=C(CCCl)NCc1ccccc1,94,–,–,–,–,–,–,–,–
CC(CN1c2ccccc2Sc2ccccc21)N(C)C.Cl (stereo not drawn),228,–,–,–,–,–,–,–,–
COC(=O)C(F)(F)C(F)(F)F,–,–,–,59.5,–,–,–,–,–
Clc1cc(Cl)c(-c2ccc(Cl)c(Cl)c2Cl)cc1Cl,–,-4.68,-5.42,–,–,9.8,5.93,–,–
Cc1cc(Cl)c(Cl)c(Cl)c1,45.5,–,–,246,–,–,–,–,–
C[Si]1(C)O[Si](C)(C)O[Si](C)(C)O[Si](C)(C)O[Si](C)(C)O[Si](C)(C)O[Si](C)(C)O[Si](C)(C)O[Si](C)(C)O1,–,–,-4.75,–,–,–,–,–,–

Compound,melting point [°C],log10 Henry constant (atm·m³/mol),log10 vapour pressure (mmHg),boiling point [°C],ready biodegradability,log10 Koa,log10 Koc (L/kg),log10 biodegradation half-life (days),logP
CCOC(=O)C(C)OC(=O)c1cc(Oc2ccc(C(F)(F)F)cc2Cl)ccc1[N+](=O)[O-] (stereo not drawn),45,–,–,–,–,–,4,–,–
c1ccc2c(c1)Cc1ccccc1C2,111,–,–,305,–,–,–,–,–
NS(=O)(=O)c1cc(C(=O)c2ccc(O)cc2)cs1,192,–,–,–,–,–,–,–,–
CCOC(=O)Cc1c[nH]c2ccccc12,44.5,–,–,–,–,–,–,–,–
Cc1ccc(C(C)C)cc1,-68.5,–,0.19,177,readily biodegradable,–,–,–,–
O=C1OC(=O)C2CC=CCC12 (stereo not drawn),–,–,–,–,not readily biodegradable,–,–,–,–
Clc1ccc(Cl)nn1,67.5,–,–,–,–,–,–,–,–
SCCCS,-79,–,–,173,–,–,–,–,–
CCCCCCCCCCCCCC(=O)OC(=O)CCCCCCCCCCCCC,53.4,–,–,–,–,–,–,–,–
COc1cc(OC)nc(Sc2cccc(Cl)c2C(=O)[O-])n1.[Na+],248,–,–,–,–,–,–,–,–
Cc1ccc(C(C)C)c(O)c1,51.5,–,-2.66,232,not readily biodegradable,–,–,–,–
ClC(Cl)C(Cl)(Cl)C(Cl)(Cl)Cl,29.4,–,–,248,–,–,–,–,–
O=C1OC(c2ccc(O)cc2)(c2ccc(O)cc2)c2ccccc21,262,–,–,–,not readily biodegradable,–,–,–,–
COc1cccc(C)c1OC,–,–,–,204,–,–,–,–,–
Fc1cccc(C(F)(F)F)c1,-81.5,–,–,102,–,–,–,–,–
CCCSC(C)C,–,–,–,132,–,–,–,–,–
CC(C)Sc1ccccc1,–,–,–,208,–,–,–,–,–
O=S(=O)(c1ccccc1)c1ccccc1,128,–,–,279,–,–,–,–,–
Oc1cc(F)cc(F)c1F,29,–,–,–,–,–,–,–,–
COc1ccccc1C(=O)c1ccccc1,41,–,–,–,–,–,–,–,–
O=Cc1ccccc1[N+](=O)[O-],43.5,–,-1.75,–,–,–,–,–,–
CCCCC(CC)CO (stereo not drawn),-70,–,-0.867,–,readily biodegradable,–,–,–,–
C[C@H]1C[C@H]2[C@@H]3CCC4=CC(=O)C=C[C@]4(C)[C@@]3(F)[C@@H](O)C[C@]2(C)[C@@]1(O)C(=O)CCl,196,–,–,–,–,–,–,–,–
O=C(c1ccccc1)c1cccc(Br)c1,81,–,–,–,–,–,–,–,–

Compound,melting point [°C],log10 Henry constant (atm·m³/mol),log10 vapour pressure (mmHg),boiling point [°C],ready biodegradability,log10 Koa,log10 Koc (L/kg),log10 biodegradation half-life (days),logP
Clc1ccc2cccc(Cl)c2c1,63.5,–,–,286,–,–,–,–,–
CC(C)(O)CC(C)(O)c1ccc(Cl)cc1 (stereo not drawn),76.5,–,–,–,–,–,–,–,–
COc1ccc(C=O)cc1OC,43,–,–,281,readily biodegradable,–,–,–,–
CCCCCCCCCCCCCCCCCCCC(=O)OC,54.5,–,–,–,–,–,–,–,–
CC(Br)C(Br)C(=O)O (stereo not drawn),87,–,–,–,–,–,–,–,–
ClC(Cl)Br,-57,-2.67,–,90,readily biodegradable,–,1.78,–,–
NN1C(=O)CSC1=S,102,–,–,–,–,–,–,–,–
C1=CC=CCCC=C1,–,–,–,146,–,–,–,–,–
c1ccc(C2OCCCO2)cc1,41,–,–,253,–,–,–,–,–
Brc1ccc(Oc2ccc(Br)cc2Br)cc1,–,–,-6.17,–,–,9.5,–,–,5.94
"CC(Cc1ccc(C(C)(C)C)cc1)CN1C[C@@H](C)O[C@@H](C)C1 (single isomer, unassigned)",–,–,-4.59,–,–,–,–,–,–
CN(C)CCN(C)C,-55,–,–,121,–,–,–,–,–
CCCCCCOCCO,-45.1,–,-0.81,208,–,–,–,–,–
Cc1cccc(Cl)c1Cl,6,–,–,208,–,–,–,–,–
O=C(O)C1C(C(=O)O)C2(Cl)C(Cl)=C(Cl)C1(Cl)C2(Cl)Cl (stereo not drawn),209,–,–,–,not readily biodegradable,–,2.79,–,–
CCCc1ccc(O)cc1O,82.5,–,–,–,–,–,–,–,–
COS(=O)(=O)c1ccc([N+](=O)[O-])cc1,94,–,–,–,–,–,–,–,–
CC1(O)CCCCC1,25,–,0.0531,155,–,–,–,–,–
CCCC(C(=O)OCC)C(=O)OCC,–,–,–,221,–,–,–,–,–
CC1CCCC(C)(C)C1 (stereo not drawn),-65.7,–,1.03,137,–,–,–,–,–
CSc1ccc2c(c1)N(CCC1CCCCN1C)c1ccccc1S2 (stereo not drawn),73,–,–,–,–,–,–,–,–
CCCCCCNC(=O)c1ccc(O)c(O)c1,140,–,–,–,–,–,–,–,–
Nc1ccc2c(S(=O)(=O)O)cccc2c1S(=O)(=O)O,–,–,–,–,not readily biodegradable,–,–,–,–
C#Cc1ccc(C)cc1,–,–,–,169,–,–,–,–,–

Compound,melting point [°C],log10 Henry constant (atm·m³/mol),log10 vapour pressure (mmHg),boiling point [°C],ready biodegradability,log10 Koa,log10 Koc (L/kg),log10 biodegradation half-life (days),logP
Cc1csc(NS(=O)(=O)c2ccc(N)cc2)n1,237,–,–,–,–,–,–,–,–
CCOC(=O)Oc1c(OC)cc(C(=O)O[C@@H]2C[C@@H]3CN4CCc5c([nH]c6cc(OC)ccc56)[C@H]4C[C@@H]3[C@H](C(=O)OC)[C@H]2OC)cc1OC,177,–,–,–,–,–,–,–,–
CC(=O)OCc1cnc(N)c(C#N)n1,–,–,–,–,readily biodegradable,–,–,–,–
C#CCOS(=O)OC1CCCCC1Oc1ccc(C(C)(C)C)cc1 (stereo not drawn),–,–,-6.52,–,–,–,3.6,–,–
O=C(Br)CBr,–,–,–,148,–,–,–,–,–
CCCCCCCCCCCCOc1ccc(C(=O)O)cc1,95,–,–,–,–,–,–,–,–
CC(O)c1ccccc1 (stereo not drawn),15,–,–,205,readily biodegradable,–,1.5,–,–
CCCCCCCCOC=O,-39.1,–,–,199,–,–,–,–,–
CC(C)c1cccc(O)c1,26,–,-1.16,228,–,–,–,–,–
C1=CC=CC=CC=C1,-4.7,–,0.892,140,–,–,–,–,–
C=COC(=O)CCCCC,–,–,–,–,readily biodegradable,–,–,–,–
c1ccc(-c2c3ccccc3nc3ccccc23)cc1,184,–,–,404,–,–,–,–,–
O=P(OCC(Br)CBr)(OCC(Br)CBr)OCC(Br)CBr (stereo not drawn),5.5,–,–,–,readily biodegradable,–,–,–,–
c1ccc(C2=NNCC2)cc1,45.8,–,–,–,–,–,–,–,–
Cc1ccc(Nc2ccc(C)cc2)cc1,79.8,–,–,330,–,–,–,–,–
OCCNCCNCCO,97.5,–,–,–,–,–,–,–,–
FC(F)(F)C#CC(F)(F)F,-117,–,–,-24.6,–,–,–,–,–
C=CC(=O)OCCO,–,–,-1.28,191,readily biodegradable,–,–,–,–
O=C(O)CCCCBr,39,–,–,–,–,–,–,–,–
CCCCCCC(C)Cl (stereo not drawn),–,–,0.136,172,–,–,–,–,–
O=C(O)c1c[nH]c2ccccc12,206,–,–,–,–,–,–,–,–
OOC1CCCCC1,-20,–,–,–,–,–,–,–,–
ClCC=Cc1ccccc1,-19,–,–,–,–,–,–,–,–
C#CCC1CCCCC1,–,–,–,158,–,–,–,–,–

# Same assay, conditions: fish
Compound,log10 BCF,log10 biotransformation half-life (days)
CCOP(=O)(Sc1ccccc1)Sc1ccccc1,1.51,-1.04
Oc1ccccc1Br,1.52,-0.24
CS(C)=O,0.6,–
Clc1cc(Cl)c(-c2ccc(Cl)c(Cl)c2Cl)cc1Cl,–,2.59
Brc1ccc(Oc2ccc(Br)cc2Br)cc1,5.83,1.25
O=C(O)C1C(C(=O)O)C2(Cl)C(Cl)=C(Cl)C1(Cl)C2(Cl)Cl (stereo not drawn),0.32,–
O=P(OCC(Br)CBr)(OCC(Br)CBr)OCC(Br)CBr (stereo not drawn),0.51,–
COP(=S)(OC)Oc1ccc(S(C)=O)c(C)c1 (stereo not drawn),0.12,-0.38
